Article PMC11435625, “In Vitro Hepatic Clearance Evaluations of Per- and Polyfluoroalkyl Substances (PFAS) across Multiple Structural Categories” (Toxics, 2024)

Key:
[1] = test system: pooled primary human hepatocyte suspensions; experiment: Hepatic clearance assay (substrate depletion, LC-MS); details: in µL/min/10^6 cells; for CLint for HTTK: CLint value carried into HTTK/IVIVE; for in vitro CLint exp assay / Unadj Clint: pooled primary human hepatocyte suspensions; for Unadj Clint: unadjusted hepatic intrinsic clearance, Table S4
Method in brief: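 Substrate depletion at 1 μM PFAS in pooled cryopreserved human hepatocytes (~0.5 × 10^6 viable cells/mL, 50-donor pool), 37 °C with shaking, sampled 0–240 min in triplicate. Quantified by LC-MS in negative ion mode against matrix-matched calibration; media-only or heat-inactivated cells as nonmetabolic-loss controls.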

[2] = IVIVE: steady-state concentration (Css), generic HTTK model; design: species or system human; details: for Css (mg/L) / Css (uM): Assuming 1 mg/kg/day dose rate, BW 70 kg; for CLhep: QL 1500000 uL/min; for Fub: fub=fup/(B:P), Fub set to 1 if needed; for CLint: scaled to whole liver: HPGL 110 mill cells/g, Vl 1596 g; for Css: human steady-state concentration, 1 mg/kg/day exposure rate, loss of parent compound only
Method in brief: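 Human Css estimated by IVIVE: plasma protein binding converted to blood fraction unbound via blood-to-plasma partitioning, and experimental Clint scaled with liver scalars to whole liver clearance. AEDs then derived by reverse dosimetry from Css and PFAS in vitro POD, defined as fifth-percentile AC50.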

plasma protein = details: cited from earlier work; for Mean fu: fraction unbound in plasma, input for IVIVE calculations; for fup (fraction unbound in plasma): human plasma
[3] = test system: pooled primary human hepatocyte suspensions; experiment: Bayesian (MCMC, invitroTKstats) analysis of hepatic clearance data; details: Level-4 Bayesian estimate, posterior median; Clint.1 series (Clint.10 all NA)
From the text: Markov Chain Monte Carlo was employed in a Bayesian analysis to estimate uncertainty of the hepatic clearance point measures as previously described, but with some modifications [10]. Briefly, after organizing PFAS-level data into a single file, the relationship between the relevant measurement process parameters was described in a graphic model in JAGS language [13] interfaced through R. For hepatic clearance data, the model describes the PFAS-specific mass spectrometric response factor between analyte peak ratio (to internal standard) and chemical concentration. […] The assumed prior for whether the chemical degraded abiotically in vitro followed a Bernoulli distribution with a 5% chance of abiotic degradation. Separate biotic and abiotic components for chemical elimination were estimated, each with a slope following an assumed uniform prior distribution bounded between the zero and the -log (limit of quantitation/Ctest). In scenarios where an external calibration without internal standard was used, the response factor was calculated using the analyte peak alone, introducing additional uncertainty due to the inability to normalize for recovery issues. The model was analyzed jointly by JAGS using five Markov chains. Convergence was identified by requiring the five chains to be consistent, as indicated by the potential scale reduction factor [14] being less than 1.1. The analysis was performed using EPA-developed R package invitroTKstats, available upon request.

[4] = Administered equivalent dose (AED) by reverse dosimetry; design: species or system human; details: from Css and AC50 POD by reverse dosimetry
Procedure: IVIVE was performed as previously described to calculate human steady-state concentrations (Css). Briefly, experimental plasma protein binding data presented elsewhere were transformed to fraction unbound in blood using blood-to-plasma partitioning values. Experimental Clint values generated here are used in conjunction with relevant liver scalars to scale up to estimate whole liver clearance. […] Once Css values were established, these were used with the PFAS-specific in vitro POD data to calculate the administered equivalent doses (AEDs) using reverse dosimetry. […] The fifth-percentile AC50 value was used to define the in vitro POD. All relevant inputs, scalars, and calculations are provided in Supplementary Information, as indicated in the results.

SMILES	CLint for HTTK [1]	in vitro CLint exp assay [1]	Css (mg/L) [2] [mg/L]	Css (uM) [2] [µM]	CLhep [2] [L/h]	Fub [2]	CLint [2] [µL/min]	Mean fu (plasma protein)	Clint.1.Med [3]	Unadj Clint [1]	Css [2] [µM]	AED [4] [mg/kg/day]	fup (fraction unbound in plasma) (plasma protein)
O=C(O)CCC(F)(F)C(F)(F)C(F)(F)C(F)(F)C(F)(F)F	11.84	11.84	2.11	6.18	1.318	0.01073	2078630	0.0059	19	–	–	–	–
O=S(=O)(O)CCC(F)(F)C(F)(F)C(F)(F)C(F)(F)C(F)(F)C(F)(F)F	1.4	1.4	5.29	12.36	0.382	0.026	245784	0.0143	0	–	–	–	–
O=P(O)(O)CCC(F)(F)C(F)(F)C(F)(F)C(F)(F)C(F)(F)C(F)(F)F [2-(Perfluorohexyl)ethylphosphonic acid]	0	0	19.62	45.85	0.000	0.02236	0	0.0123	0	0.71	–	–	–
O=C(O)C(F)(F)C(F)(F)C(F)(F)C(F)(F)C(F)(F)C(F)(F)C(F)(F)C(F)F [9-H-Perfluorononanoic acid (9H-PFNA)]	0	0	268.16	601.28	0.000	0.001636	0	0.0009	0	–	–	–	–
O=C(O)C(F)(F)C(F)(F)C(F)(F)C(F)(F)C(F)(F)C(F)(F)C(F)(F)C(F)F [9H-PFNA, 9-H-Perfluorononanoic acid]	–	–	–	–	–	–	–	–	–	0.00	601.28	0.004	0.0009
O=C(O)C(F)(F)C(F)(F)C(F)(F)C(F)(F)C(F)(F)C(F)(F)C(F)(F)C(F)(F)C(F)(F)C(F)F [11H-PFUnDA, 11-H-Perfluoroundecanoic acid]	–	–	–	–	–	–	–	–	–	0.00	294.69	0.03	0.0015
O=C(O)C(F)(F)C(F)(F)C(F)(F)C(F)(F)C(F)(F)C(F)(F)C(F)(F)C(F)(F)C(F)(F)F [PFDA, Perfluorodecanoic acid]	–	–	–	–	–	–	–	–	–	0.00	173.91	0.06	0.0027
O=C(O)C(F)(F)C(F)(F)C(F)(F)C(F)(F)C(F)(F)C(F)(F)F [PFHpA, Perfluoroheptanoic acid]	–	–	–	–	–	–	–	–	–	3.12	1657.68	0.01	0.0004
O=S(=O)(O)C(F)(F)C(F)(F)C(F)(F)C(F)(F)C(F)(F)C(F)(F)C(F)(F)F [PFHpS, Perfluoroheptanesulfonic acid]	–	–	–	–	–	–	–	–	–	1.23	893.98	0.02	0.0006
O=C(O)C(F)(F)C(F)(F)C(F)(F)C(F)(F)C(F)(F)F [PFHxA, Perfluorohexanoic acid]	–	–	–	–	–	–	–	–	–	1.62	113.04	0.08	0.0068
O=S(=O)(O)C(F)(F)C(F)(F)C(F)(F)C(F)(F)C(F)(F)C(F)(F)F [PFHxS, Perfluorohexanesulfonic acid]	–	–	–	–	–	–	–	–	–	1.52	670.49	0.033	0.0009
O=C(O)C(F)(F)C(F)(F)C(F)(F)C(F)(F)C(F)(F)C(F)(F)C(F)(F)C(F)(F)F [PFNA, Perfluorononanoic acid]	–	–	–	–	–	–	–	–	–	0.83	325.11	0.05	0.0016
O=S(=O)(O)C(F)(F)C(F)(F)OC(F)(F)C(F)(F)F [Perfluoro(2-ethoxyethane)sulfonic acid]	5.51	5.51	16.68	52.79	0.158	0.002727	967336	0.0015	266	5.51	–	–	–
O=C(O)C(F)(F)OC(F)(F)C(F)(F)OC(F)(F)C(F)(F)OC(F)(F)F [Perfluoro-3,6,9-trioxadecanoic acid]	0	0	804.48	1952.80	0.000	0.0005455	0	0.0003	0	0.00	–	–	–
O=C(O)C(F)(F)OC(F)(F)C(F)(F)OC(F)(F)C(F)(F)C(F)(F)C(F)(F)F [Perfluoro-3,6-dioxadecanoic acid]	0	0	344.78	773.10	0.000	0.001273	0	0.0007	0	0.00	–	–	–
O=S(=O)(O)C(F)(F)C(F)(F)C(F)(F)C(F)(F)F [Perfluorobutanesulfonic acid (PFBS)]	4.75	4.75	2.25	7.51	1.150	0.02327	833910	0.0128	0	–	–	–	–
O=C(O)C(F)(F)C(F)(F)C(F)(F)F [Perfluorobutanoic acid (PFBA)]	0	0	2.60	12.13	0.000	0.1691	0	0.093	0	–	–	–	–
O=C(O)C(F)(F)C(F)(F)C(F)(F)C(F)(F)C(F)(F)C(F)(F)C(F)(F)C(F)(F)C(F)(F)F [Perfluorodecanoic acid (PFDA)]	0	0	89.39	173.91	0.000	0.004909	0	0.0027	0	–	–	–	–
O=C(O)C(F)(F)C(F)(F)C(F)(F)C(F)(F)C(F)(F)C(F)(F)F [Perfluoroheptanoic acid (PFHpA)]	0	3.12	603.36	1657.68	0.000	0.0007273	0	0.0004	0	–	–	–	–
O=C(O)C(F)(F)C(F)(F)C(F)(F)C(F)(F)C(F)(F)F [Perfluorohexanoic acid (PFHxA)]	0	1.62	35.49	113.04	0.000	0.01236	0	0.0068	0	–	–	–	–
O=C(O)C(F)(F)C(F)(F)C(F)(F)C(F)(F)C(F)(F)C(F)(F)C(F)(F)C(F)(F)C(F)(F)C(F)(F)F [Perfluoroundecanoic acid (PFUnDA)]	0	0	20.81	36.89	0.000	0.02109	0	0.0116	0	–	–	–	–
O=C([O-])C(F)(F)C(F)(F)C(F)(F)C(F)(F)C(F)(F)C(F)(F)C(F)(F)F.[K+] [Potassium perfluorooctanoate (KPFOA)]	0	0	134.08	323.88	0.000	0.003273	0	0.0018	0	–	–	–	–
O=C([O-])C(F)(F)C(F)(F)C(F)(F)C(F)(F)C(F)(F)C(F)(F)C(F)(F)F.[Na+] [Sodium perfluorooctanoate (NaPFOA)]	0	0	402.24	971.65	0.000	0.001091	0	0.0006	0	–	–	–	–
